Measured values published in patent US6355620B1, “C-2 modified erythromycin derivatives” (Abbott Laboratories, priority 1999, dated 2002).

What was measured:
Assay in all cases: In vitro antibacterial activity, agar dilution MIC
Type in all cases: cell-based
[1] = test system: Candida albicans CCH 442; conditions: code TT, BHI agar, 35-37° C., 20 to 24 hours, unit assumed
Protocol: (§1) Representative compounds of the present invention were assayed in vitro for antibacterial activity as follows: Twelve petri dishes containing successive aqueous dilutions of the test compound mixed with 10 mL of sterilized Brain Heart Infusion (BHI) agar (Difco 0418-01-5) were prepared. Each plate was inoculated with 1:100 (or 1:10 for slow-growing strains, such as Micrococcus and Streptococcus) dilutions of up to 32 different microorganisms, using a Steers replicator block. The inoculated plates were incubated at 35-37° C. for 20 to 24 hours. In addition, a control plate, using BHI agar containing no test compound, was prepared and incubated at the beginning and end of each test.
(§2) An additional plate containing a compound having known susceptibility patterns for the organisms being tested and belonging to the same antibiotic class as the test compound was also prepared and incubated as a further control, as well as to provide test-to-test comparability.
(§3) After incubation, each plate was visually inspected. The minimum inhibitory concentration (MIC) was defined as the lowest concentration of drug yielding no growth, a slight haze, or sparsely isolated colonies on the inoculum spot as compared to the growth control.

[2] = test system: Enterococcusfaecium ATCC X043; conditions: code II, BHI agar, 35-37° C., 20 to 24 hours, unit assumed
Protocol: as §1, §2, §3

[3] = test system: Escherichiacoli DC-2; conditions: code SS, BHI agar, 35-37° C., 20 to 24 hours, unit assumed
Protocol: as §1, §2, §3

[4] = test system: Escherichiacoli JUHL; conditions: code QQ, BHI agar, 35-37° C., 20 to 24 hours, unit assumed
Protocol: as §1, §2, §3

[5] = test system: Escherichiacoli SS; conditions: code RR, BHI agar, 35-37° C., 20 to 24 hours, unit assumed
Protocol: as §1, §2, §3

[6] = test system: Haemophilislnfluenzae DILL AMP R; conditions: code WW, BHI agar, 35-37° C., 20 to 24 hours, unit assumed
Protocol: as §1, §2, §3

[7] = test system: Micrococcusluteus ATCC 4698; conditions: code PP, BHI agar, 35-37° C., 20 to 24 hours, unit assumed
Protocol: as §1, §2, §3

[8] = test system: Micrococcusluteus ATCC 9341; conditions: code OO, BHI agar, 35-37° C., 20 to 24 hours, unit assumed
Protocol: as §1, §2, §3

[9] = test system: Mycobacterium smegmatis ATCC 114; conditions: code UU, BHI agar, 35-37° C., 20 to 24 hours, unit assumed
Protocol: as §1, §2, §3

[10] = test system: Nocardia Asteroides ATCC 99700; conditions: code VV, BHI agar, 35-37° C., 20 to 24 hours, unit assumed
Protocol: as §1, §2, §3

[11] = test system: Staphylococcus aureus 1775; conditions: code GG, BHI agar, 35-37° C., 20 to 24 hours, unit assumed
Protocol: as §1, §2, §3

[12] = test system: Staphylococcus aureus A-5177; conditions: code BB, BHI agar, 35-37° C., 20 to 24 hours, unit assumed
Protocol: as §1, §2, §3

[13] = test system: Staphylococcus aureus A-5278; conditions: code CC, BHI agar, 35-37° C., 20 to 24 hours, unit assumed
Protocol: as §1, §2, §3

[14] = test system: Staphylococcus aureus ATCC 6538P; conditions: code AA, BHI agar, 35-37° C., 20 to 24 hours, unit assumed
Protocol: as §1, §2, §3

[15] = test system: Staphylococcus aureus CMX 553; conditions: code FF, BHI agar, 35-37° C., 20 to 24 hours, unit assumed
Protocol: as §1, §2, §3

[16] = test system: Staphylococcus aureus CMX 642A; conditions: code DD, BHI agar, 35-37° C., 20 to 24 hours, unit assumed
Protocol: as §1, §2, §3

[17] = test system: Staphylococcus aureus NCTC 10649M; conditions: code EE, BHI agar, 35-37° C., 20 to 24 hours, unit assumed
Protocol: as §1, §2, §3

[18] = test system: Staphylococcus epidermidis 3519; conditions: code HH, BHI agar, 35-37° C., 20 to 24 hours, unit assumed
Protocol: as §1, §2, §3

[19] = test system: Streptococcus Pneumonia 5649; conditions: code ZZA, BHI agar, 35-37° C., 20 to 24 hours, unit assumed
Protocol: as §1, §2, §3

[20] = test system: Streptococcus Pneumonia ATCC 6303; conditions: code XX, BHI agar, 35-37° C., 20 to 24 hours, unit assumed
Protocol: as §1, §2, §3

[21] = test system: Streptococcus Pneumonia GYR 1171; conditions: code YY, BHI agar, 35-37° C., 20 to 24 hours, unit assumed
Protocol: as §1, §2, §3

[22] = test system: Streptococcus agalactiae CMX 508; conditions: code KK, BHI agar, 35-37° C., 20 to 24 hours, unit assumed
Protocol: as §1, §2, §3

[23] = test system: Streptococcus bovis A-5169; conditions: code JJ, BHI agar, 35-37° C., 20 to 24 hours, unit assumed
Protocol: as §1, §2, §3

[24] = test system: Streptococcus pyogenes 930; conditions: code MM, BHI agar, 35-37° C., 20 to 24 hours, unit assumed
Protocol: as §1, §2, §3

[25] = test system: Streptococcus pyogenes EES61; conditions: code LL, BHI agar, 35-37° C., 20 to 24 hours, unit assumed
Protocol: as §1, §2, §3

[26] = test system: Streptococcus pyogenes PIU 2548; conditions: code NN, BHI agar, 35-37° C., 20 to 24 hours, unit assumed
Protocol: as §1, §2, §3

[27] = test system: Streptococcus Pneumonia 5979; conditions: code ZZ, BHI agar, 35-37° C., 20 to 24 hours, unit assumed
Protocol: as §1, §2, §3

SMILES | Antibacterial Activity (MIC) [1] [µg/mL] | Antibacterial Activity (MIC) [2] [µg/mL] | Antibacterial Activity (MIC) [3] [µg/mL] | Antibacterial Activity (MIC) [4] [µg/mL] | Antibacterial Activity (MIC) [5] [µg/mL] | Antibacterial Activity (MIC) [6] [µg/mL] | Antibacterial Activity (MIC) [7] [µg/mL] | Antibacterial Activity (MIC) [8] [µg/mL] | Antibacterial Activity (MIC) [9] [µg/mL] | Antibacterial Activity (MIC) [10] [µg/mL] | Antibacterial Activity (MIC) [11] [µg/mL] | Antibacterial Activity (MIC) [12] [µg/mL] | Antibacterial Activity (MIC) [13] [µg/mL] | Antibacterial Activity (MIC) [14] [µg/mL] | Antibacterial Activity (MIC) [15] [µg/mL] | Antibacterial Activity (MIC) [16] [µg/mL] | Antibacterial Activity (MIC) [17] [µg/mL] | Antibacterial Activity (MIC) [18] [µg/mL] | Antibacterial Activity (MIC) [19] [µg/mL] | Antibacterial Activity (MIC) [20] [µg/mL] | also measured
CC[C@H]1OC(=O)[C@H](C)[C@@H](O[C@H]2C[C@@](C)(OC)[C@@H](O)[C@H](C)O2)[C@H](C)[C@@H](O[C@@H]2O[C@H](C)C[C@H](N(C)C)[C@H]2O)[C@](C)(O)C[C@@H](C)C(=O)[C@H](C)[C@@H](O)[C@]1(C)O [Ery. A standard, Erythromycin A, reference compound] | > 100 | 0.05 | > 100 | > 100 | 0.78 | 4 | 0.2 | 0.05 | 3.1 | 0.1 | > 100 | 3.1 | > 100 | 0.2 | 0.39 | 0.39 | 0.39 | 0.39 | 16 | 0.06 | Antibacterial Activity (MIC) [21]: 0.06 µg/mL; Antibacterial Activity (MIC) [22]: 0.05 µg/mL; Antibacterial Activity (MIC) [23]: 0.02 µg/mL; Antibacterial Activity (MIC) [24]: > 100 µg/mL; Antibacterial Activity (MIC) [25]: 0.05 µg/mL; Antibacterial Activity (MIC) [26]: 6.2 µg/mL
CCC1OC(=O)C(C)(CC=Cc2ccccc2)C(=O)C(C)C(OC2OC(C)CC(N(C)C)C2O)C(C)(OC)CC(C)C(=O)C(C)C2NC(=O)OC12C (centres unmarked) [Example 1, Compound of formula (II): R^a is CH3, R^b is H, Y and Z together are O, T is —NH—, R is —CH2CH═CH-(phenyl)] | 100 | 25 | > 100 | > 100 | 50 | > 128 | 6.2 | 3.1 | 25 | 25 | 100 | 25 | 100 | 25 | 50 | 25 | 50 | 50 | 16 | 8 | Antibacterial Activity (MIC) [27]: 64 µg/mL; Antibacterial Activity (MIC) [21]: 4 µg/mL; Antibacterial Activity (MIC) [22]: 12.5 µg/mL; Antibacterial Activity (MIC) [23]: 12.5 µg/mL; Antibacterial Activity (MIC) [24]: 50 µg/mL; Antibacterial Activity (MIC) [25]: 12.5 µg/mL; Antibacterial Activity (MIC) [26]: 12.5 µg/mL
CCC1OC(=O)C(C)(O)C(=O)C(C)C(OC2OC(C)CC(N(C)C)C2O)C(C)(OC)CC(C)C(=O)C(C)C2N(CCCCc3ccccc3)C(=O)OC12C (centres unmarked) [Example 2, Compound of formula (II): R^a is CH3, R^b is H, Y and Z together are O, T is —N(W(R^g))—, W is —(CH2)p—, p is 4, R^g is phenyl, R is —OH] | 100 | 0.39 | > 100 | > 100 | 6.2 | 64 | 0.78 | 0.39 | 3.1 | 3.1 | 100 | 1.56 | 100 | 1.56 | 1.56 | 3.1 | 1.56 | 3.1 | 1 | 0.5 | Antibacterial Activity (MIC) [27]: 32 µg/mL; Antibacterial Activity (MIC) [21]: 0.25 µg/mL; Antibacterial Activity (MIC) [22]: 0.2 µg/mL; Antibacterial Activity (MIC) [23]: 0.2 µg/mL; Antibacterial Activity (MIC) [24]: 25 µg/mL; Antibacterial Activity (MIC) [25]: 0.1 µg/mL; Antibacterial Activity (MIC) [26]: 0.39 µg/mL
